As a reminder, the EC50 is the concentration that produces a half-maximal response. Low values mean greater potency, high ones weaker potency. As a reminder, the Emax is the maximal effect, on the per cent scale that the assay sets. What is called AUC is the area under the concentration-time curve, a measure of exposure. One may read the half-life as how long it takes for the measured level to halve. What is called MRT is a mean duration of stay, worked out from the concentration-time curve.

This note sets out measurements from patent publication US20200277278A1, “Deuterium Atom-Substituted Indole Formamide Derivative, Preparation Method Therefor, and Medical Applications Thereof” (Jiangsu Hengrui Medicine Co., Ltd., priority 2017, published 2020).

Like-named read-outs stand apart in the source and are kept apart here.

The subject of one data set is MC38 colorectal tumor. The experiment in a line: Efficacy in isotype MC38 colorectal tumor mice model. The format is in vivo, C57BL/6 mice. The method, then: Female C57BL/6 mice (20-25 gram, 7-9 weeks old) were used in the experiment. In vivo antitumor activity of the compound of Example 1 administered alone or the compound of Example 1 administered in combination with anti-mouse PD-1 antibody was evaluated by detecting the growth of isotype MC38 colorectal tumor in inbred C57BL/6 mice. 500,000 (5×10^5) MC38 cells were implanted subcutaneously in the right abdomen of each mouse. When the tumor grew to 40-80 mm^3 (on Day 6), the mice were grouped randomly into the above four groups. In Group III and IV, the mice were administered the compound of Example 1 (0.5 mg/kg) once a day for 20 consecutive days. During the treatment experiment in Group II and IV, the anti-mouse PD-1 (CD279) antibody (BioXcell) (5 mg/kg) was intraperitoneally injected (i.p.) to the mice bearing MC38 tumor on Day 6, 9, 12 and 15, respectively. […]
The tumor volume was measured with a caliper in three dimensions, and then calculated according to the following formula: tumor volume (mm^3)=1×w×h×0.5236, wherein 1 represents the length of the tumor, w represents the width of the tumor, and h represents the height of the tumor, in millimeters. […]

In another data set the test system is IL-17A. The data set is described as follows: IL-17A enzyme-linked immune quantitative assay in cytostim-activated human PBMC. The format is cell-based. The following applies: 72 h, 3 days. As for the experimental part:
Frozen human peripheral blood mononuclear cells (PBMC) were rapidly resuscitated in pre-warmed lymphocyte culture medium, and centrifuged at 1000 rpm for 10 min. The cell culture supernatant was removed. The cells were gently suspended in TexMACS medium and counted. The T cell activation reagent cytostim (10 μl/ml) was added in proportion to the cell suspension. Then, the cells were seeded in a 96-well cell culture plate at a density of 1×10^5 peripheral blood mononuclear cells/well. The test compounds were diluted in gradient with TexMACS medium, and added respectively to the test wells, with 2-3 parallel wells per group. A negative control well containing only cells without cytostim was provided to obtain the background reading. The cell culture plate was placed in a incubator at 5% carbon dioxide, 37° C. to incubate for 3 days. The cell culture supernatant was collected 3 days after drug treatment, and centrifuged to remove the suspension. Then, IL-17A in the supernatant was quantified with IL-17A enzyme-linked immunosorbent kit. EC50 values of the test compounds were calculated with GraphPad Prism 6.0.

A short description of data set [1]: Pharmacokinetics assay in mice. The format is in vivo. The following applies: female, mouse, po, C57 mice, intragastric, 2 mg/kg; for Vd/F: read-out: Apparent distribution volume Vz/F; for AUC: read-out: Area under curve AUC; for CL/F: read-out: Clearance CLz/F; for half-life: read-out: Half-life T½ (converted); for Cmax: read-out: Plasma concentration Cmax; for MRT: read-out: Residence time MRT. As for the experimental part:
Mice were used as test animals. […] The pharmacokinetic behavior of the compounds of the present invention was studied and evaluated in mice. A group of eighteen C57 mice (female, equally divided into two groups) were purchased from Shanghai Jiesijie Laboratory Animal Co., LTD, with Certificate No.: SCXK (Shanghai) 2013-0006. A certain amount of the test compound was weighed, and added with 5% by volume of DMSO, 5% by volume of tween 80 and 90% by volume of normal saline to prepare a 0.1 mg/mL colorless, clear and transparent solution. […] The samples were stored in heparinized tubes, and centrifuged for 10 minutes at 3500 rpm to separate the blood plasma. The plasma samples were stored at −20° C. The content of the test compound in the plasma of mice after intragastrical administration of the test compound at different concentrations was determined: 25 μL of mouse plasma at each time after administration was taken, added with 80 μL of the internal standard solution of camptothecin (100 ng/mL) and 200 μL of acetonitrile, vortex-mixed for 5 minutes, and centrifuged for 10 minutes (3600 rpm). 1 μL of the supernatant was taken from the plasma samples for LC/MS/MS analysis.

In another data set the target is T1, RORγ LBD (Homo sapiens, UniProt P51449).
T1 construct: RORγ LBD (AB Vector); purchased AB Vector
T1 sequence (P51449 269-508 limits assumed): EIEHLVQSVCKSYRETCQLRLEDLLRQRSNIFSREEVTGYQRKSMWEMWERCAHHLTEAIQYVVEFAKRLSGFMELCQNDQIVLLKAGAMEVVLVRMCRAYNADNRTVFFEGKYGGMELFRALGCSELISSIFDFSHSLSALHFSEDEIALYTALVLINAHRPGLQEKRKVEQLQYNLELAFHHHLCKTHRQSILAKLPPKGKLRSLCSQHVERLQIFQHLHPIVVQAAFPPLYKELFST
The data set is described as follows: LanthaScreen TR-FRET RORγ co-activation system, effect on in vitro activity of RORγ. In kind it is biochemical. As for the experimental part: A complete buffer D (complete TR-FRET Coregulator) (Life Technologies) was formulated first, containing a final concentration of 5 mM DTT. The final concentration of DMSO was 2%. The test compound was serially diluted to 2× final concentration in the complete buffer D containing 2% of DMSO, and the maximum dose was 60 μm. The test compound was added to the test wells of a 384-well plate (PerkinElmer) in 10 μl/well. Two parallel control wells were set up for each test compound at the same concentration. 4×RORγ LBD (AB Vector) was formulated. RORγ LBD was diluted with the complete buffer D to a concentration of 1 ng/μL, and added to the test wells of the 384-well plate in 5 µl/well. The negative control well was 5 μL of complete buffer D without RORγ LBD. A mixed solution comprising 0.6 μM of fluorescein-D22 (4×) and 8 nM of terbium (Tb)-labeled anti-GST antibody (4×) (Life Technologies) was formulated with the complete buffer D, and 5 μL of the mixed solution was added to the 384-well plate. The total reaction system was 20 μL. The 384-well plate was gently shaken on a shaker, and incubated at room temperature in the dark for 2-4 hours.
Fluorescence readings were determined with Tecan Infinite M1000. The logarithmic curve of the ratio of the emission wavelength of 520 nm/495 nm to the concentration of the compound was plotted by GraphPad Prism 6.0 software. EC50 value of the test compound was calculated.
For orientation: Time-resolved FRET reads energy transfer from a long-lived donor to a nearby acceptor.

Consider `[2H]C([2H])(F)Cn1c(Cc2ccc(Cl)cc2C(F)(F)F)cc2cc(C(=O)N[C@@H](CO)c3ccc(S(=O)(=O)CC)cc3)ccc21` (single isomer, unassigned) [Example 1], for which, in the data set with MC38 colorectal tumor (0.5 mg/kg oral in combination with anti-mouse PD-1 monoclonal antibody 5 mg/kg i.p.), the “Tumor growth inhibition rate TGI” value came out at 65.5%. In addition, the “Tumor growth inhibition rate TGI” value in the data set with MC38 colorectal tumor (administered alone, 0.5 mg/kg oral, once a day for 20 days) is 22.5%. In the data set with IL-17A, the EC50 was 22 nM and the Emax is 88%. For the same compound, in data set [1] (plasma), the Vd/F was found to be 0.648 L/kg, the AUC amounted to 40400 ng·h/mL, the CL/F worked out at 0.82 mL/min/kg and the half-life is 9.08 h. In addition, in data set [1] (plasma), the Cmax was 3710 ng/mL and the MRT was found to be 12 h.

As to `[2H]C([2H])([2H])C([2H])([2H])S(=O)(=O)c1ccc([C@H](CO)NC(=O)c2ccc3c(c2)cc(Cc2ccc(Cl)cc2C(F)(F)F)n3CCF)cc1` (single isomer, unassigned) [Example 6], in the data set with IL-17A, the EC50 came to 37 nM and the Emax worked out at 100%. In addition, in data set [1] (in vivo), the Vd/F is 0.575 L/kg, the area under the curve (AUC) is 31600 ng·h/mL, the CL/F stood at 1.06 mL/min/kg and the half-life is 6.29 h. In data set [1] (in vivo), the Cmax is 2730 ng/mL and the MRT amounted to 9.13 h.

Take `[2H]C([2H])(c1cc2cc(C(=O)N[C@@H](CO)c3ccc(S(=O)(=O)CC)cc3)ccc2n1C1CC1)n1nccc1C(F)(F)F` [Example 2, 1-Cyclopropyl-2-[dideutero-[5-(trifluoromethyl)pyrazol-1-yl]methyl]-N-[(1R)-1-(4-ethylsulfonylphenyl)-2-hydroxy-ethyl]indole-5-carboxamide]: on RORγ LBD, the EC50 was 16 nM and the maximal effect (Emax) stood at 89%.

In the data set on IL-17A, `[2H]C([2H])(NC(=O)c1ccc2c(c1)cc(Cc1ccc(Cl)cc1C(F)(F)F)n2CCF)c1ccc(S(=O)(=O)CC)cc1` [Example 3, 2-[[4-Chloro-2-(trifluoromethyl)phenyl]methyl]-N-[dideutero-(4-ethylsulfonylphenyl)methyl]-1-(2-fluoroethyl)indole-5-carboxamide] came in with an EC50 of 103 nM and an Emax of 102%. Further, at RORγ LBD, the midpoint of the response, the EC50, lay at 17 nM and the maximum response (Emax) was 98%.

Turning to `[2H]C([2H])(NC(=O)c1ccc2c(c1)cc(Cc1ccccc1C(F)(F)F)n2C1CC1)c1ccc(S(=O)(=O)CC)cc1` [Example 4, 1-Cyclopropyl-N-[dideutero-(4-ethylsulfonylphenyl)methyl]-2-[[2-(trifluoromethyl)phenyl]methyl]indole-5-carboxamide], in the data set on IL-17A, the EC50 came to 20 nM and the Emax worked out at 79%. In addition, at RORγ LBD, the EC50 stood at 5 nM and the Emax was determined as 98%.

In the case of `[2H]C([2H])(O)Cn1c(Cc2ccc(Cl)cc2C(F)(F)F)cc2cc(C(=O)N[C@@H](CO)c3ccc(S(=O)(=O)CC)cc3)ccc21` [Example 5, 2-[[4-Chloro-2-(trifluoromethyl)phenyl]methyl]-1-(2,2-dideutero-2-hydroxy-ethyl)-N-[(1R)-1-(4-ethylsulfonylphenyl)-2-hydroxy-ethyl]indole-5-carboxamide], in the data set on IL-17A, a half-maximal effect (EC50) was put at 32 nM and the Emax turned out to be 82%. Further, on RORγ LBD, the EC50 amounted to 9 nM and the Emax was determined as 73%.

At RORγ LBD, `[2H]C([2H])([2H])OC[C@H](NC(=O)c1ccc2c(c1)cc(Cc1ccc(Cl)cc1C(F)(F)F)n2CCF)c1ccc(S(=O)(=O)CC)cc1` [Example 8, 2-[[4-Chloro-2-(trifluoromethyl)phenyl]methyl]-N-[(1R)-1-(4-ethylsulfonylphenyl)-2-(trideuteromethoxy)ethyl]-1-(2-fluoroethyl)indole-5-carboxamide] returned an EC50 of 34 nM and an Emax of 85%.

Regarding `[2H]C([2H])(C)n1c(Cc2ccc(Cl)cc2C(F)(F)F)cc2cc(C(=O)N[C@@H](CO)c3ccc(S(=O)(=O)CC)cc3)ccc21` [Example 11, 2-[[4-Chloro-2-(trifluoromethyl)phenyl]methyl]-1-(1,1-dideuteroethyl)-N-[(1R)-1-(4-ethylsulfonylphenyl)-2-hydroxyethyl]indole-5-carboxamide], at RORγ LBD, the concentration giving a half-maximal response (EC50) is 21 nM and the Emax was 84%.

With `[2H]C([2H])(F)Cn1c(Cc2ccc(Cl)cc2C(F)(F)F)cc2cc(C(=O)N[C@@H](CO)c3ccc(S(=O)(=O)CC)cn3)ccc21` [Example 13, 2-[[4-Chloro-2-(trifluoromethyl)phenyl]methyl]-1-(2,2-dideutero-2-fluoro-ethyl)-N-[(1R)-1-(5-ethylsulfonyl-2-pyridinyl)-2-hydroxy-ethyl]indole-5-carboxamide], in the data set with IL-17A, a half-maximal response (EC50) required 22 nM and the maximum response (Emax) came to 88%. On RORγ LBD, the EC50 is 9 nM and the Emax came to 77%.
